# Data published in patent publication US10450335B2, “Antiviral oxime phosphoramide compounds” (Merck Sharp & Dohme Corp., priority 2015, dated 2019).
# Like-named read-outs stand apart in the source and are kept apart here.
# What was measured:
# [1] = Prodrug stability assay in bio-relevant media (FaSSIF with Pancreatin, GI tract stability); format: in vitro ADME; details: HPLC peak area of prodrug at 5 h / 0 h, 0.5 mg/mL Pancreatin in FaSSIF, 37° C.
# Method: Prodrug Stability Assay in Bio-Relevant Media
# The following assay was employed to evaluate the stability of the prodrugs in simulated gastrointestinal tract conditions. Preparation of fasted state simulated intestinal fluid (FaSSIF) using Phares SIF Powder was carried out according to protocols from Phare Drug Delivery AG (Baselland, Switzerland). For sample preparation, 10 μL stock solutions (10 mM) of prodrug substance in DMSO was added to 990 μL of 0.5 mg/mL Pancreatin solution (Fisher CAS#8049-47-6) in FaSSIF. Two samples were prepared for each compound. If the sample was a clear solution, it was directly analyzed by HPLC. If the sample was not clear, the sample was […] at 37° C. and observed 5 h later. If the sample was clear, HPLC analysis was directly performed. If the sample was still not clear, the sample was diluted with 100% ACN and assayed by HPLC. All the samples were vortexed for 3 min and observed before injection. For the diluted samples, the area is multiplied by a dilution factor when the data is analyzed. The analysis was carried out with an Agilent 1100 series HPLC with autosampler. The column was a Poroshell 120 EC-C18, 4.6×50 mm, […]. The flow rate was 1.8 mL/min, and the injection volume was 5 or 10 μL. UV detection was in the range 210-400 nm. The mobile phase consisted of solvent A (water plus 10 mM tetrabutylammonium bromide) and solvent B (acetonitrile) with a gradient of: 90% solvent A at 0 min, changing to 95% solvent B over 6 min, maintaining for 1.5 min, then reverting to 90% solvent A over 1.6 min. The HPLC peak area of the prodrug at 5 h was divided by the HPLC peak area of the prodrug at 0 h, to generate the % claimed parent ratio, which is summarized in Table 2 for gastrointestinal (GI) Tract stability.
# [2] = test system: HIV-1 (H9/IIIB strain); assay: Viking assay: antiviral potency in a multiple round HIV-1 infection assay in MT4-GFP cells; format: cell-based; details: Human immunodeficiency virus 1, IIIB, MT4-GFP cells infected with HIV-1 H9/IIIB, inhibition of reproductive ratio R0
# Method: Assessing Antiviral Potency in a Multiple Round HIV-1 Infection Assay (Viking Assay)
# The antiviral activity of the tenofovir prodrugs of the Examples herein was assessed in an assay that measures the rate of replication of HIV in cell culture, termed the Viking assay (VIral KINetics in Green cells) and performed as follows. HIV-1 replication was monitored using MT4-gag-GFP clone D3 (hereafter designated MT4-GFP), which are MT-4 cells modified to harbor a GFP reporter gene, the expression of which is dependent on the HIV-1 expressed proteins tat and rev. Productive infection of an MT4-GFP cell with HIV-1 results in GFP expression approximately 24 h post-infection. MT4-GFP cells were maintained at 37° C./5% CO2/90% relative humidity in RPMI 1640 supplemented with 10% fetal bovine serum, 100 U/ml penicillin/streptomycin, and 400 μg/ml G418 to maintain the reporter gene. For infections, MT4-GFP cells were placed in the same medium lacking G418 and infected overnight with HIV-1 (H9/IIIB strain) virus at an approximate multiplicity of infection of 0.01 in the same incubation conditions. Cells were then washed and re-suspended in either RPMI 1640 supplemented with 10% or 50% normal human serum (NHS) at 1.6×10^5 cells/mL (10% NHS or 50% NHS, respectively). Compound plates were prepared by dispensing compounds dissolved in DMSO into wells of 384 well poly-D-lysine-coated plates (0.2 μl/well) using an ECHO acoustic dispenser. Each compound was tested in a 10-point serial 3-fold dilution (typical final concentrations: 8.4 μM-0.42 nM). Controls included no inhibitor (DMSO only) and a combination of three antiviral agents (efavirenz, indinavir, an in-house integrase strand transfer inhibitor at final concentrations of 4 μM each). Cells were added (50 μL/well) to compound plates and the infected cells were maintained at 37° C./5% CO2/90% relative humidity.
# Infected cells were quantified at two time points, ˜48 h and ˜72 h post-infection, by counting the number of green cells in each well using an Acumen eX3 scanner. The increase in the number of green cells over ˜24 h period gives the reproductive ratio, R0, which is typically 5-15 and has been shown experimentally to be in logarithmic phase (data not shown). Inhibition of R0 is calculated for each well, and IC50s determined by non-linear 4-parameter curve fitting.
# [3] = 10% normal human serum, read-out: Viking, IC50 (10% NHS)
# [4] = 50% normal human serum, read-out: Viking, IC50 (50% NHS)
Molecule,GI Tract stability [1] [%],"IC50 [2, 3] [nM]","IC50 [2, 4] [nM]"
"CC(C)OC(=O)[C@H](C)NP(=O)(CO[C@H](C)Cn1cnc2c(N)ncnc21)ON=C(C1CC1)C1CC1 (stereo partly drawn) [Example 10, isopropyl (((((R)-1-(6-amino-9H-purin-9-yl)propan-2-yl)oxy)methyl)(((dicyclopropylmethyl-ene)amino)oxy)phosphoryl)-L-alaninate]",95.0,46.8,228
butyl 2-(((R)-((((R)-1-(6-amino-9H- purin-9-yl)propan-2- yl)oxy)methyl)((propan-2- ylideneamino)oxy)phosphoryl)amino)- 2-methylpropanoate; and butyl 2-(((S)-((((R)-1-(6-amino-9H- purin-9-yl)propan-2- yl)oxy)methyl)((propan-2- ylideneamino)oxy)phosphoryl)amino)- 2-methylpropanoate [Example 23],99.0,,
"CC(C)OC(=O)C(C)(C)NP(=O)(CO[C@H](C)Cn1cnc2c(N)ncnc21)ON=C1CCCC1 (mixture of isomers) [Example 27, isopropyl 2-(((R)-((((R)-1-(6-amino-9H-purin-9-yl)propan-2-yl)oxy)methyl)((cyclopentylideneamino)oxy)phosphoryl)amino)-2-methylpropanoate; and isopropyl 2-(((S)-((((R)-1-(6-amino-9H-purin-9-yl)propan-2-yl)oxy)methyl)((cyclopentylideneamino)oxy)phosphoryl)amino)-2-methylpropanoate]",99.3,,
"CC(C)=NOP(=O)(CO[C@H](C)Cn1cnc2c(N)ncnc21)NC(C)(C)C(=O)OC(C)C (stereo partly drawn) [Example 22, isopropyl 2-(((R)-((((R)-1-(6-amino-9H-purin-9-yl)propan-2-yl)oxy)methyl)((propan-2-ylideneamino)oxy)phosphoryl)amino)-2-methylpropanoate; and isopropyl 2-(((S)-((((R)-1-(6-amino-9H-purin-9-yl)propan-2-yl)oxy)methyl)((propan-2-ylideneamino)oxy)phosphonyl)amino)-2-methylpropanoate]",98.1,,
"CC(C)CC(CC(C)C)=NOP(=O)(CO[C@H](C)Cn1cnc2c(N)ncnc21)N[C@@H](C)C(=O)OC(C)C (stereo partly drawn) [Example 12, isopropyl (((R)-(((R)-1-(6-amino-9H-purin-9-yl)propan-2-yl)oxy)methyl)(((2,6-dimethylheptan-4-ylidene)amino)oxy)phosphoryl)-L-alaninate; and isopropyl (((S)-(((R)-1-(6-amino-9H-purin-9-yl)propan-2-yl)oxy)methyl)(((2,6-dimethylheptan-4-ylidene)amino)oxy)phosphoryl)-L-alaninate]",17.6,,
"CC(C)CC(CC(C)C)=NOP(=O)(CO[C@H](C)Cn1cnc2c(N)ncnc21)NC(C)(C)C(=O)OC1CCC1 (mixture of isomers) [Example 32, cyclobutyl 2-(((R)-((((R)-1-(6-amino-9H-purin-9-yl)propan-2-yl)oxy)methyl)(((2,6-dimethylheptan-4-ylidene)amino)oxy)phosphoryl)amino)-2-methylpropanoate; and cyclobutyl 2-(((S)-((((R)-1-(6-amino-9H-purin-9-yl)propan-2-yl)oxy)methyl)(((2,6-dimethylheptan-4-ylidene)amino)oxy)phosphoryl)amino)-2-methylpropanoate]",5.6,,
"CC(C)CC(CC(C)C)=NOP(=O)(CO[C@H](C)Cn1cnc2c(N)ncnc21)NC(C)(C)C(=O)OC(C)C (single isomer, unassigned) [Example 28]",93.1,0.7,3.8
"CC(C)OC(=O)[C@H](C)NP(=O)(CO[C@H](C)Cn1cnc2c(N)ncnc21)ON=C1CCCC1 (stereo partly drawn) [Example 13, isopropyl (((R)-(((R)-1-(6-amino-9H-purin-9-yl)propan-2-yl)oxy)methyl)((cyclopentylidene-amino)oxy)phosphoryl)-L-alaninate; and isopropyl (((S)-(((R)-1-(6-amino-9H-purin-9-yl)propan-2-yl)oxy)methyl)((cyclopentylidene-amino)oxy)phosphoryl)-L-alaninate]",95.7,,
"C/C(=N\OP(=O)(CO[C@H](C)Cn1cnc2c(N)ncnc21)N[C@@H](C)C(=O)OC(C)C)C1CCCCC1 (stereo partly drawn) [Example 15, isopropyl (((R)-(((R)-1-(6-amino-9H-purin-9-yl)propan-2-yl)oxy)methyl)((((E)-1-cyclohexylethylidene)amino)oxy)phosphoryl)-L-alaninate; and isopropyl (((S)-(((R)-1-(6-amino-9H-purin-9-yl)propan-2-yl)oxy)methyl)((((E)-1-cyclohexylethylidene)amino)oxy)phosphoryl)-L-alaninate]",33.4,,
"C/C(=N\OP(=O)(CO[C@H](C)Cn1cnc2c(N)ncnc21)N[C@@H](C)C(=O)OC(C)C)C1CCCC1 (stereo partly drawn) [Example 21, isopropyl (((R)-(((R)-1-(6-amino-9H-purin-9-yl)propan-2-yl)oxy)methyl)((((E)-1-cyclopentylethylidene)amino)oxy)phosphoryl)-L-alaninate; and isopropyl (((S)-(((R)-1-(6-amino-9H-purin-9-yl)propan-2-yl)oxy)methyl)((((E)-1-cyclopentylethylidene)amino)oxy)phosphonyl)-L-alaninate]",79.5,,
